The results in this text go back to PubChem BioAssay AID248 (DTP/NCI, 2004).

Several values for one entry are separate records, joined by “and”; a condition that tells them apart may be missing. Equal entries are not always repeated. Inconclusive results and toxic doses are left out.

For this experiment, the system named is L1210 leukemia ip in BDF1 mice, survival T/C. The experiment can be described thus: NCI In Vivo Anticancer Drug Screen. Data for tumor model L1210 Leukemia (intraperitoneal) in B6D2F1 (BDF1) mice. The note with it: endpoint: mean survival time, higher = longer survival. In a few lines: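 Value reflects the ratio of survival in compound-treated mice to survival in vehicle-treated controls, with both groups carrying the same transplanted tumor.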

Setting [1] is: dose: 100.0 mg/kg/injection, schedule: Q01DX009 (ip), vehicle: saline with Tween-80.
The mark [2] stands for this setting: dose: 100.0 mg/kg/injection, schedule: Q01DX001 (ip), vehicle: Klucel (hydroxypropylcellulose) (HPC).
[3] abbreviates: dose: 200.0 mg/kg/injection, schedule: Q01DX001 (ip), vehicle: Klucel (hydroxypropylcellulose) (HPC).
Where [4] appears, read: dose: 200.0 mg/kg/injection, schedule: Q01DX009 (ip), vehicle: saline with Tween-80.
Setting [5] is: dose: 100.0 mg/kg/injection, schedule: Q01DX001 (ip), vehicle: carboxymethylcellulose (CMC).
The mark [6] stands for this setting: dose: 200.0 mg/kg/injection, schedule: Q01DX001 (ip), vehicle: carboxymethylcellulose (CMC).
The mark [7] stands for this setting: dose: 400.0 mg/kg/injection, schedule: Q01DX001 (ip), vehicle: carboxymethylcellulose (CMC).
Where [8] appears, read: dose: 50.0 mg/kg/injection, schedule: Q04DX002 (ip), vehicle: Klucel (hydroxypropylcellulose) (HPC).
[9] abbreviates: dose: 100.0 mg/kg/injection, schedule: Q01DX009 (ip), vehicle: Klucel (hydroxypropylcellulose) (HPC).
Where [10] appears, read: dose: 100.0 mg/kg/injection, schedule: Q04DX002 (ip), vehicle: Klucel (hydroxypropylcellulose) (HPC).
[11] abbreviates: dose: 200.0 mg/kg/injection, schedule: Q04DX002 (ip), vehicle: Klucel (hydroxypropylcellulose) (HPC).
Setting [12] is: dose: 200.0 mg/kg/injection, schedule: Q01DX009 (ip), vehicle: Klucel (hydroxypropylcellulose) (HPC).
The mark [13] stands for this setting: dose: 400.0 mg/kg/injection, schedule: Q01DX009 (ip), vehicle: Klucel (hydroxypropylcellulose) (HPC).
Setting [14] is: dose: 100.0 mg/kg/injection, schedule: Q04DX003 (ip), vehicle: saline with Tween-80.
Where [15] appears, read: dose: 5.0 mg/kg/injection, schedule: Q01DX001 (ip), vehicle: saline.
[16] abbreviates: dose: 10.0 mg/kg/injection, schedule: Q01DX001 (ip), vehicle: saline.
Where [17] appears, read: dose: 20.0 mg/kg/injection, schedule: Q01DX001 (ip), vehicle: saline.
The mark [18] stands for this setting: dose: 400.0 mg/kg/injection, schedule: Q04DX002 (ip), vehicle: Klucel (hydroxypropylcellulose) (HPC).

With `CN(N=O)C(=O)Nc1ccc(NC(=O)N(C)N=O)cc1`, the T/C (dose: 30.0 mg/kg/injection, schedule: Q01DX Z (ip), vehicle: carboxymethylcellulose (CMC)) is 162 % of control; the T/C (dose: 40.0 mg/kg/injection, schedule: Q01DX Z (ip), vehicle: carboxymethylcellulose (CMC)) is 151 % of control; the T/C (dose: 45.0 mg/kg/injection, schedule: Q01DX001 (ip), vehicle: carboxymethylcellulose (CMC)) is 120 % of control; the T/C (dose: 50.0 mg/kg/injection, schedule: Q01DX Z (ip), vehicle: carboxymethylcellulose (CMC)) is 97 % of control; the T/C (dose: 360.0 mg/kg/injection, schedule: Q01DX001 (ip), vehicle: carboxymethylcellulose (CMC)) was 91 % of control.

As for `COc1cccc(OC)c1CCCl`, the T/C is 95 % of control (dose: 100.0 mg/kg/injection, schedule: Q04DX003 (ip), vehicle: saline); 97 % of control (dose: 200.0 mg/kg/injection, schedule: Q04DX003 (ip), vehicle: saline); 110 % of control (dose: 400.0 mg/kg/injection, schedule: Q04DX003 (ip), vehicle: saline).

`O=C(O)CCc1c[nH]c2ccc(N(CCCl)CCCl)cc12`: the T/C reads like this: (dose: 0.7 mg/kg/injection, schedule: Q01DX Z (ip), vehicle: carboxymethylcellulose (CMC)) 114 % of control; (dose: 1.5 mg/kg/injection, schedule: Q01DX Z (ip), vehicle: carboxymethylcellulose (CMC)) 116 % of control; (dose: 1.87 mg/kg/injection, schedule: Q01DX001 (ip), vehicle: carboxymethylcellulose (CMC)) 121 % of control; (dose: 3.75 mg/kg/injection, schedule: Q01DX001 (oral), vehicle: carboxymethylcellulose (CMC)) 119 % of control; (dose: 7.5 mg/kg/injection, schedule: Q01DX001 (ip), vehicle: carboxymethylcellulose (CMC)) 173 % of control; (dose: 15.0 mg/kg/injection, schedule: Q01DX001 (oral), vehicle: carboxymethylcellulose (CMC)) 103 % of control.

`Cc1c(Cl)cccc1CC(Cl)C#N` (stereo unspecified): the T/C runs as follows: (dose: 12.5 mg/kg/injection, schedule: Q01DX009 (ip), vehicle: saline with Tween-80) 97 % of control; (dose: 25.0 mg/kg/injection, schedule: Q01DX009 (ip), vehicle: saline with Tween-80) 90 % of control; (dose: 50.0 mg/kg/injection, schedule: Q01DX009 (ip), vehicle: saline with Tween-80) 87 % of control; under setting [1], 89 % of control.

Regarding `CN(C)c1ccc(C(C#N)C(C#N)c2ccccc2)cc1` (stereo unspecified), the T/C by setting is: (dose: 50.0 mg/kg/injection, schedule: Q01DX001 (ip), vehicle: Klucel (hydroxypropylcellulose) (HPC)) 88 % of control; under setting [2], 88 % of control; under setting [3], 88 % of control.

Take `O=c1ccn(-c2ccccc2)c(=S)[nH]1`: the T/C (dose: 100.0 mg/kg/injection, schedule: Q01DX001 (ip), vehicle: saline with Tween-80) is 96 % of control; the T/C under setting [1] was 95 % of control; the T/C (dose: 200.0 mg/kg/injection, schedule: Q01DX001 (ip), vehicle: saline with Tween-80) is 96 % of control; the T/C under setting [4] was 95 % of control; the T/C (dose: 400.0 mg/kg/injection, schedule: Q01DX001 (ip), vehicle: saline with Tween-80) was 100 % of control.

As for `CC(=O)NCCCCCC(=O)Nc1ccc(Cl)c(Cl)c1`, the T/C was 94 % of control under setting [5], 92 % of control under setting [6] and 92 % of control under setting [7].

As to `CCN(CCC#N)C(=S)Nc1ccc(C)c(C)c1`, the T/C by setting is: (dose: 100.0 mg/kg/injection, schedule: Q04DX002 (ip), vehicle: saline with Tween-80) 89 % of control; (dose: 200.0 mg/kg/injection, schedule: Q04DX002 (ip), vehicle: saline with Tween-80) 108 % of control; (dose: 400.0 mg/kg/injection, schedule: Q04DX002 (ip), vehicle: saline with Tween-80) 86 % of control.

For the compound `O=C(O)C(=C(c1ccccc1)c1ccccc1)c1cccc2ccccc12`, the T/C is, setting by setting: under setting [8], 98 % of control; under setting [9], 101 % of control; under setting [10], 100 % of control; under setting [11], 100 % of control.

Take `Cc1cc(=O)[nH]c2c(C)cccc12`: the T/C was 93 % of control under setting [5]; 95 % of control (dose: 100.0 mg/kg/injection, schedule: Q01DX001 (ip), vehicle: saline); 104 % of control under setting [9]; 104 % of control under setting [6]; 98 % of control (dose: 200.0 mg/kg/injection, schedule: Q01DX001 (ip), vehicle: saline); 108 % of control under setting [12]. Further, the T/C under setting [7] is 98 % of control; the T/C (dose: 400.0 mg/kg/injection, schedule: Q01DX001 (ip), vehicle: saline) was 87 % of control; the T/C under setting [13] is 105 % of control.

Consider `CCCCCCCCOC(=O)CCC(N)C(=O)O` (stereo unspecified), for which the T/C runs as follows: under setting [2], 107 % of control; under setting [9], 93 % of control; under setting [3], 102 % of control; under setting [12], 97 % of control; (dose: 400.0 mg/kg/injection, schedule: Q01DX001 (ip), vehicle: Klucel (hydroxypropylcellulose) (HPC)) 98 % of control; under setting [13], 97 % of control.

On to `O=C(COc1ccc(Cl)cc1Cl)OCCOCCOCCOCCOCCOCCOCCOCCOCCOCCOCCOCCOCCO`, for which the T/C under setting [9] was 101 % of control, the T/C under setting [12] is 101 % of control and the T/C under setting [13] is 98 % of control.

For the compound `O=C(O)C1C(c2ccccc2)=C(c2ccccc2)c2ccccc21` (stereo unspecified), the T/C reads like this: (dose: 25.0 mg/kg/injection, schedule: Q04DX003 (ip), vehicle: saline with Tween-80) 92 % of control; (dose: 50.0 mg/kg/injection, schedule: Q04DX003 (ip), vehicle: saline with Tween-80) 100 % of control; under setting [14], 95 % of control and 103 % of control.

Consider `CC(C)=CC1CC(C)C2(CCC3(C)CC4C(C(=O)CC4(C)O)/C(C=O)=C\CC32)O1` (stereo unspecified), for which the T/C by setting is: under setting [15], 103 % of control; under setting [16], 97 % of control; under setting [17], 97 % of control; (dose: 40.0 mg/kg/injection, schedule: Q01DX001 (ip), vehicle: saline) 97 % of control; (dose: 80.0 mg/kg/injection, schedule: Q01DX001 (ip), vehicle: saline) 109 % of control.

As for `COC1OC2COc3ccccc3OC2C2C1N2C(c1ccccc1)N1C2C(OC)OC3COc4ccccc4OC3C21` (stereo unspecified), the T/C is, setting by setting: under setting [10], 93 % of control; under setting [11], 100 % of control; under setting [18], 107 % of control.

On to `COc1ccc(NC(=O)NCc2cccc(Cl)c2)cc1`, for which the T/C is, setting by setting: under setting [8], 100 % of control; under setting [10], 103 % of control and 107 % of control; under setting [11], 98 % of control; under setting [18], 110 % of control and 92 % of control.

On to `c1ccc([S+]([CH2][Hg][CH2][S+](c2ccccc2)c2ccccc2)c2ccccc2)cc1`, for which the T/C is, setting by setting: under setting [15], 92 % of control; under setting [16], 109 % of control; under setting [17], 119 % of control.

For `CCCCN=Cc1ccccc1`, the T/C is 114 % of control under setting [1]; 96 % of control under setting [14]; 90 % of control under setting [4]; 87 % of control (dose: 200.0 mg/kg/injection, schedule: Q04DX003 (ip), vehicle: saline with Tween-80); 103 % of control (dose: 400.0 mg/kg/injection, schedule: Q04DX003 (ip), vehicle: saline with Tween-80).

Regarding `CCc1ccc(NS(=O)(=O)c2ccc3ccccc3c2)cc1`, the T/C runs as follows: under setting [9], 107 % of control; under setting [12], 107 % of control; under setting [13], 98 % of control.

Regarding `Cc1ccc(Nc2ccc([N+](=O)[O-])cc2[N+](=O)[O-])c(C)c1`, the T/C runs as follows: under setting [9], 94 % of control; (dose: 100.0 mg/kg/injection, schedule: Q04DX003 (ip), vehicle: Klucel (hydroxypropylcellulose) (HPC)) 96 % of control; under setting [12], 101 % of control; (dose: 200.0 mg/kg/injection, schedule: Q04DX003 (ip), vehicle: Klucel (hydroxypropylcellulose) (HPC)) 91 % of control; under setting [13], 103 % of control; (dose: 400.0 mg/kg/injection, schedule: Q04DX003 (ip), vehicle: Klucel (hydroxypropylcellulose) (HPC)) 98 % of control.
